# In ChEMBL document CHEMBL1131541, “New synthetic inhibitors of microtubule depolymerization” (1998):
# Activity calls are given as the source filed them. The calls are words filed in the database; no cut-off is given here.
# Target: Tubulin beta chain (Bos taurus) (UniProt Q6B856)
# Test: Effect on microtubule stabilization isolated from bovine brain
# Tubulin beta chain (Bos taurus), sequence (Q6B856 whole entry): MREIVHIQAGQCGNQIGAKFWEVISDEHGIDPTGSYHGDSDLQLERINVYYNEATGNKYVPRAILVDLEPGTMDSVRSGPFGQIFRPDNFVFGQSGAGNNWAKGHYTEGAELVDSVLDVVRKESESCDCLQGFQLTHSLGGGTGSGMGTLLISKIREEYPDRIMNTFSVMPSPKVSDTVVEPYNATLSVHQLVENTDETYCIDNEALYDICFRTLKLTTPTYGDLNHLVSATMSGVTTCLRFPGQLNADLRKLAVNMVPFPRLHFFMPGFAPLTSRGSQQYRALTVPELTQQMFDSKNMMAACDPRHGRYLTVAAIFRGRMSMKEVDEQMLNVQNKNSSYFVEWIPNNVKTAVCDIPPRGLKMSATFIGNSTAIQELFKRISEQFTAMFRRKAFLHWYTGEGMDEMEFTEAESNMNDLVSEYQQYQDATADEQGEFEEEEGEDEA
row,Structure (SMILES),Relative stability [%]
1,CCCCOC(=O)N[C@@H](c1ccncc1)[C@@H](O)C(=O)OC1CC2C(C)(C)C1(C)[C@@]13CC(C)c4ccccc4[C@@]21O3 (stereo partly specified),-3
2,CCOC(=O)N[C@@H](c1ccncc1)[C@@H](O)C(=O)OC1CC2C(C)(C)C1(C)[C@@]13C[C@](O)(CO)c4ccccc4[C@@]21O3 (stereo partly specified),327
3,CCOC(=O)N[C@@H](c1ccsc1)[C@@H](O)C(=O)OC1CC2C(C)(C)C1(C)[C@@]13C[C@H](C)c4ccccc4[C@@]21O3 (stereo partly specified),788
4,C=C1C[C@@]23O[C@]2(c2ccccc21)C1CC(OC(=O)[C@H](O)[C@@H](NC(=O)OCC)c2cccnc2)C3(C)C1(C)C (stereo partly specified),65
5,CC(C)NC(=O)N[C@@H](c1ccccc1)[C@@H](O)C(=O)OC1CC2C(C)(C)C1(C)[C@@]13C[C@H](C)c4ccccc4[C@@]21O3 (stereo partly specified),150
6,C=C1C[C@@]23O[C@]2(c2ccccc21)C1CC(OC(=O)[C@H](O)[C@@H](NC(=O)OCC)c2ccc(Cl)cc2)C3(C)C1(C)C (stereo partly specified),163
7,C[C@H]1C[C@@]23O[C@]2(c2ccccc21)C1CC(OC(=O)[C@H](O)[C@@H](NC(=O)NC(C)(C)C)c2ccccc2)C3(C)C1(C)C (stereo partly specified),153
8,CCOC(=O)N[C@@H](c1cccnc1)[C@@H](O)C(=O)OC1CC2C(C)(C)C1(C)[C@@]13C[C@H](C)c4ccccc4[C@@]21O3 (stereo partly specified),119
9,C=C1C[C@@]23O[C@]2(c2ccccc21)C1CC(OC(=O)[C@H](O)[C@@H](NC(=O)CC)c2ccccc2)C3(C)C1(C)C (stereo partly specified),108
10,C=C1C[C@@]23O[C@]2(c2ccccc21)C1CC(OC(=O)[C@H](O)[C@@H](NC(=O)OCC)c2ccc(C)cc2)C3(C)C1(C)C (stereo partly specified),142
11,C=C1C[C@@]23O[C@]2(c2ccccc21)C1CC(OC(=O)[C@H](O)[C@@H](NC(=O)NC(C)(C)C)c2ccccc2)C3(C)C1(C)C (stereo partly specified),92
12,CCOC(=O)N[C@@H](c1ccccc1)[C@@H](O)C(=O)OC1CC2C(C)(C)C1(C)[C@@]13C[C@](O)(COC(C)=O)c4ccccc4[C@@]21O3 (stereo partly specified),22
13,CCCCNC(=O)N[C@@H](c1ccccc1)[C@@H](O)C(=O)OC1CC2C(C)(C)C1(C)[C@@]13C[C@H](C)c4ccccc4[C@@]21O3 (stereo partly specified),130
14,CCOC(=O)N[C@@H](c1cccc(F)c1)[C@@H](O)C(=O)OC1CC2C(C)(C)C1(C)[C@@]13C[C@H](C)c4ccccc4[C@@]21O3 (stereo partly specified),139
15,CCCC(=O)N[C@@H](c1ccccc1)[C@@H](O)C(=O)OC1CC2C(C)(C)C1(C)[C@@]13C[C@H](C)c4ccccc4[C@@]21O3 (stereo partly specified),168
16,C=C1C[C@@]23O[C@]2(c2ccccc21)C1CC(OC(=O)[C@H](O)[C@@H](NC(=O)OC)c2ccccc2)C3(C)C1(C)C (stereo partly specified),164
17,C=C1C[C@@]23O[C@]2(c2ccccc21)C1CC(OC(=O)[C@H](O)[C@@H](NC(=O)CC(C)C)c2ccccc2)C3(C)C1(C)C (stereo partly specified),101
18,COC(=O)N[C@@H](c1ccsc1)[C@@H](O)C(=O)OC1CC2C(C)(C)C1(C)[C@@]13CC(C)c4ccccc4[C@@]21O3 (stereo partly specified),316
19,CCOC(=O)N[C@@H](c1ccc(Cl)cc1)[C@@H](O)C(=O)OC1CC2C(C)(C)C1(C)[C@@]13C[C@H](C)c4ccccc4[C@@]21O3 (stereo partly specified),193
20,C=C1C[C@@]23O[C@]2(c2ccccc21)C1CC(OC(=O)[C@H](O)[C@@H](NC(=O)OCC)c2ccc(O)cc2)C3(C)C1(C)C (stereo partly specified),130
21,C=C1C[C@@]23O[C@]2(c2ccccc21)C1CC(OC(=O)[C@H](O)[C@@H](NC(C)=O)c2ccccc2)C3(C)C1(C)C (stereo partly specified),89
22,CCOC(=O)N[C@@H](c1ccccc1)[C@@H](O)C(=O)OC1CC2C(C)(C)C1(C)[C@@]13C[C@H](C)c4ccccc4[C@@]21O3 (stereo partly specified),209
23,CCOC(=O)N[C@@H](c1ccsc1)[C@@H](O)C(=O)OC1CC2C(C)(C)C1(C)[C@@]13C[C@@H](C)c4ccccc4[C@@]21O3 (stereo partly specified),58
24,CCCCOC(=O)N[C@@H](c1ccc(O)cc1)[C@@H](O)C(=O)OC1CC2C(C)(C)C1(C)[C@@]13CC(C)c4ccccc4[C@@]21O3 (stereo partly specified),80
25,CCOC(=O)N[C@@H](c1ccc(OC)cc1)[C@@H](O)C(=O)OC1CC2C(C)(C)C1(C)[C@@]13C[C@H](C)c4ccccc4[C@@]21O3 (stereo partly specified),125
26,CCOC(=O)N[C@@H](c1cccs1)[C@@H](O)C(=O)OC1CC2C(C)(C)C1(C)[C@@]13C[C@H](C)c4ccccc4[C@@]21O3 (stereo partly specified),311
27,C[C@H]1C[C@@]23O[C@]2(c2ccccc21)C1CC(OC(=O)[C@H](O)[C@@H](NC(=O)CCC2CCCC2)c2ccccc2)C3(C)C1(C)C (stereo partly specified),86
28,C=C1C[C@@]23O[C@]2(c2ccccc21)C1CC(OC(=O)[C@H](O)[C@@H](NC(=O)OCC)c2ccccc2)C3(C)C1(C)C (stereo partly specified),228

row,Structure (SMILES),Relative stability [%]
1,COC(=O)N[C@@H](c1ccccc1)[C@@H](O)C(=O)OC1CC2C(C)(C)C1(C)[C@@]13C[C@H](C)c4ccccc4[C@@]21O3 (stereo partly specified),244
2,C[C@H]1C[C@@]23O[C@]2(c2ccccc21)C1CC(OC(=O)[C@H](O)[C@@H](NC(=O)OC(C)(C)C)c2ccccc2)C3(C)C1(C)C (stereo partly specified),148
3,CCOC(=O)N[C@@H](c1ccc(O)cc1)[C@@H](O)C(=O)OC1CC2C(C)(C)C1(C)[C@@]13C[C@H](C)c4ccccc4[C@@]21O3 (stereo partly specified),306
4,C=C1C[C@@]23O[C@]2(c2ccccc21)C1CC(OC(=O)[C@H](O)[C@@H](NC(=O)OC(C)(C)C)c2ccccc2)C3(C)C1(C)C (stereo partly specified),27
5,CCCC(=O)N[C@@H](c1ccncc1)[C@@H](O)C(=O)OC1CC2C(C)(C)C1(C)[C@@]13CC(C)c4ccccc4[C@@]21O3 (stereo partly specified),862
6,CC(C)NC(=O)N[C@@H](c1ccsc1)[C@@H](O)C(=O)OC1CC2C(C)(C)C1(C)[C@@]13CC(C)c4ccccc4[C@@]21O3 (stereo partly specified),56
7,COC(=O)N[C@@H](c1ccncc1)[C@@H](O)C(=O)OC1CC2C(C)(C)C1(C)[C@@]13C[C@](O)(COC(C)=O)c4ccccc4[C@@]21O3 (stereo partly specified),116
8,CCOC(=O)N[C@@H](c1ccc(C)cc1)[C@@H](O)C(=O)OC1CC2C(C)(C)C1(C)[C@@]13C[C@H](C)c4ccccc4[C@@]21O3 (stereo partly specified),152
9,C=C1C[C@@]23O[C@]2(c2ccccc21)C1CC(OC(=O)[C@H](O)[C@@H](NC(=O)OCC)c2cccs2)C3(C)C1(C)C (stereo partly specified),215
10,C=C1C[C@@]23O[C@]2(c2ccccc21)C1CC(OC(=O)[C@H](O)[C@@H](NC(=O)NC(C)C)c2ccccc2)C3(C)C1(C)C (stereo partly specified),103
11,CCOC(=O)N[C@@H](c1ccc(F)cc1)[C@@H](O)C(=O)OC1CC2C(C)(C)C1(C)[C@@]13C[C@H](C)c4ccccc4[C@@]21O3 (stereo partly specified),139
12,CCOC(=O)N[C@@H](c1ccncc1)[C@@H](O)C(=O)OC1CC2C(C)(C)C1(C)[C@@]13C[C@@H](C)c4ccccc4[C@@]21O3 (stereo partly specified),227
13,C=C1C[C@@]23O[C@]2(c2ccccc21)C1CC(OC(=O)[C@H](O)[C@@H](NC(=O)OCC)c2ccoc2)C3(C)C1(C)C (stereo partly specified),119
14,C=C1C[C@@]23O[C@]2(c2ccccc21)C1CC(OC(=O)[C@H](O)[C@@H](NC(=O)OCC)c2ccc(OC)cc2)C3(C)C1(C)C (stereo partly specified),95
15,C=C1C[C@@]23O[C@]2(c2ccccc21)C1CC(OC(=O)[C@H](O)[C@@H](NC(=O)OCC)c2cccc(F)c2)C3(C)C1(C)C (stereo partly specified),106
16,C=C1C[C@@]23O[C@]2(c2ccccc21)C1CC(OC(=O)[C@H](O)[C@@H](NC(=O)OCC)c2ccncc2)C3(C)C1(C)C (stereo partly specified),423
17,C=C1C[C@@]23O[C@]2(c2ccccc21)C1CC(OC(=O)[C@H](O)[C@@H](NC(=O)NCCCC)c2ccccc2)C3(C)C1(C)C (stereo partly specified),68
18,C=C1C[C@@]23O[C@]2(c2ccccc21)C1CC(OC(=O)[C@H](O)[C@@H](NC(=O)OCC)c2ccc(F)cc2)C3(C)C1(C)C (stereo partly specified),152
19,COC(=O)N[C@@H](c1ccncc1)[C@@H](O)C(=O)OC1CC2C(C)(C)C1(C)[C@@]13C[C@]4(CO4)c4ccccc4[C@@]21O3 (stereo partly specified),423
20,CCOC(=O)N[C@@H](c1ccoc1)[C@@H](O)C(=O)OC1CC2C(C)(C)C1(C)[C@@]13C[C@H](C)c4ccccc4[C@@]21O3 (stereo partly specified),190
21,C=C1C[C@@]23O[C@]2(c2ccccc21)C1CC(OC(=O)[C@H](O)[C@@H](NC(=O)OCCCC)c2ccccc2)C3(C)C1(C)C (stereo partly specified),83
22,CCOC(=O)N[C@@H](c1ccccc1)[C@@H](O)C(=O)OC1CC2C(C)(C)C1(C)[C@@]13C[C@](O)(CO)c4ccccc4[C@@]21O3 (stereo partly specified),20
23,COC(=O)N[C@@H](c1ccc(O)cc1)[C@@H](O)C(=O)OC1CC2C(C)(C)C1(C)[C@@]13CC(C)c4ccccc4[C@@]21O3 (stereo partly specified),293
24,C=C1C[C@@]23O[C@]2(c2ccccc21)C1CC(OC(=O)[C@H](O)[C@@H](NC(=O)OCC)c2ccsc2)C3(C)C1(C)C (stereo partly specified),788
25,CCOC(=O)N[C@@H](c1ccncc1)[C@@H](O)C(=O)OC1CC2C(C)(C)C1(C)[C@@]13C[C@H](C)c4ccccc4[C@@]21O3 (stereo partly specified),1300
26,CCCC(=O)N[C@@H](c1ccsc1)[C@@H](O)C(=O)OC1CC2C(C)(C)C1(C)[C@@]13CC(C)c4ccccc4[C@@]21O3 (stereo partly specified),91
27,C=C1C[C@@]23O[C@]2(c2ccccc21)C1CC(OC(=O)[C@H](O)[C@@H](NC(=O)CCC)c2ccccc2)C3(C)C1(C)C (stereo partly specified),114

# Target: Tubulin beta chain (Bos taurus) (UniProt Q6B856)
# Test: Compound was tested for its effect on microtubule stabilization isolated from bovine brain; NS: not significant
row,Structure (SMILES),Relative stability
1,CCOC(=O)N[C@@H](c1ccc(OCc2ccccc2)cc1)[C@@H](O)C(=O)OC1CC2C(C)(C)C1(C)[C@@]13C[C@H](C)c4ccccc4[C@@]21O3 (stereo partly specified),inactive
2,C=C1C[C@@]23O[C@]2(c2ccccc21)C1CC(OC(=O)[C@H](O)[C@@H](NC(=O)NCC)c2ccccc2)C3(C)C1(C)C (stereo partly specified),inactive
3,CCOC(=O)N[C@@H](c1ccccc1)[C@@H](O)C(=O)OC1CC2C(C)(C)C1(C)[C@@]13C[C@@H](C)c4ccccc4[C@@]21O3 (stereo partly specified),inactive
4,CCCCOC(=O)N[C@@H](c1ccccc1)[C@@H](O)C(=O)OC1CC2C(C)(C)C1(C)[C@@]13C[C@H](C)c4ccccc4[C@@]21O3 (stereo partly specified),inactive
5,CCOC(=O)N[C@@H](c1ccsc1)[C@@H](O)C(=O)OC1CC2C(C)(C)C1(C)[C@@]13C[C@](O)(COC(C)=O)c4ccccc4[C@@]21O3 (stereo partly specified),inactive
6,CCNC(=O)N[C@@H](c1ccccc1)[C@@H](O)C(=O)OC1CC2C(C)(C)C1(C)[C@@]13C[C@H](C)c4ccccc4[C@@]21O3 (stereo partly specified),inactive
